Earlier results on one substance are cited in US9150734B2, “Zwitterionic lignin derivatives for marine antifouling coatings” (Empire Technology Development LLC, priority 2012, dated 2015).

In the data set the test system is diatom species. Particulars: variety of diatom species, various concentrations; variation between species.

benzalkonium chloride: the “concentration at which all diatoms were killed” value was “less than 0.001%”.
